In article PMC8915833 (Proceedings of the National Academy of Sciences of the …, 2022):

Target: T1, PctA dCache_1 domain (Pseudomonas aeruginosa, UniProt G3XD24)
T1 sequence (G3XD24 32-276 limits assumed): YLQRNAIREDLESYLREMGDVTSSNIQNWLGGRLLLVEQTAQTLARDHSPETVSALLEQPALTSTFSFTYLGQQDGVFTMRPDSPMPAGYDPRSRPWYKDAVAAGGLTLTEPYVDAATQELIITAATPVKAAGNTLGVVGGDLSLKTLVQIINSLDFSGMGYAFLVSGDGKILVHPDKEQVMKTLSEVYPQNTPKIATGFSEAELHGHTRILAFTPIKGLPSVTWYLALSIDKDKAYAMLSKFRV
Assay: isothermal titration calorimetry
Format: binding

C[C@H](N)C(=O)O [L-Ala]
KD: Isothermal titration calorimetry study of L-Ala binding to the wild type and the mutated
